Where a name gives a salt, the structure may show the parent alone.
Assays:
[1] = system: nausea and vomiting associated with administration of the test drug; test: Working Example 2: drugs to treat nausea and vomiting associated with the test drug; conditions: for efficacy against nausea and vomiting associated with the test drug (summary): summary of Table 18
Text: The administration period and efficacy of various drugs to treat nausea and vomiting associated with administration of the test drug were studied.

[2] = in vivo
Experimental: The serum calcium was measured at the start, after 12 weeks, after 24 weeks, after 48 weeks, and after 72 weeks. Serum calcium standard value: 8.4 to 10.4 mg/dL. The standard concomitant drug (610 mg of calcium, 400 IU of vitamin D3, and 30 mg of magnesium) was taken once a day after dinner from the time of consent to the end of the trial.

[3] = in vivo; remark: listed apart in the source
Experimental: The ratio of the urinary calcium value/urinary creatine value was compared before beginning administration and in the weeks of observation. The urinary calcium was measured at the start, after 12 weeks, after 24 weeks, after 48 weeks, and after 72 weeks.

[4] = system: osteoporosis patients having normal renal function, mild or moderate renal dysfunction; conditions: in vivo
[5] = Working Example 1: serum calcium concentration / hypercalcemia; type: in vivo, human
Experimental: Both the 5 and 100 unit groups were administered two tablets of a calcium agent (containing 500 mg of precipitated calcium carbonate [200 mg as calcium] per tablet) once a day.

[6] = 20 μg/day; blood samples 4 to 6 hours after administration; Non-patent Reference 1; cited from earlier work
[7] = conventional daily administration; moderate renal dysfunction; Non-patent Reference 32; cited from earlier work

## CCOc1cc(N)c(Cl)cc1C(=O)NCC1CN(Cc2ccc(F)cc2)CCO1 (stereo not shown) [Gasmotin, mosapride citrate]
[1]
  efficacy against nausea and vomiting associated with the test drug (summary): effective

## NC(N)=Nc1nc(CSCCC(N)=NS(N)(=O)=O)cs1 [Gaster D, famotidine]
[1]; Event: Nausea, before or after test drug: Unknown
  Effective or ineffective: Effective
[1]
  efficacy against nausea and vomiting associated with the test drug (summary): effective

## O=c1[nH]c2ccccc2n1CCCN1CCC(n2c(=O)[nH]c3cc(Cl)ccc32)CC1 [Nauzelin, domperidone]
[1]; Event: Nausea, given Before test drug, taken after breakfast, lunch, and dinner
  Effective or ineffective: Effective
[1]; Event: Vomiting, given Before test drug, taken after breakfast, lunch, and dinner
  Effective or ineffective: Effective
[1]
  efficacy against nausea and vomiting associated with the test drug (summary): effective

## CN1CCN(CCCN2c3ccccc3Sc3ccc(Cl)cc32)CC1.O=C(O)/C=C\C(=O)O.O=C(O)/C=C\C(=O)O [Novamine]
[1]; Event: Nausea, given Before test drug
  Effective or ineffective: Ineffective

## CCN(CC)CCNC(=O)c1cc(Cl)c(N)cc1OC [Primperan, metoclopramide]
[1]; Event: Nausea, given Before test drug, listed as Primperan tablet
  Effective or ineffective: Ineffective
[1]
  efficacy against nausea and vomiting associated with the test drug (summary): effective

## Cc1c(OCC(F)(F)F)ccnc1C[S+]([O-])c1nc2ccccc2[nH]1 (stereo not shown) [Takepron OD, lansoprazole]
[1]
  efficacy against nausea and vomiting associated with the test drug (summary): effective

## CC[C@H](C)[C@H](NC(=O)[C@H](CCC(=O)O)NC(=O)[C@H](CO)NC(=O)[C@@H](NC(=O)[C@@H](N)CO)C(C)C)C(=O)N[C@@H](CCC(N)=O)C(=O)N[C@@H](CC(C)C)C(=O)N[C@@H](CCSC)C(=O)N[C@@H](Cc1cnc[nH]1)C(=O)N[C@@H](CC(N)=O)C(=O)N[C@@H](CC(C)C)C(=O)NCC(=O)N[C@@H](CCCCN)C(=O)N[C@@H](Cc1cnc[nH]1)C(=O)N[C@@H](CC(C)C)C(=O)N[C@@H](CC(N)=O)C(=O)N[C@@H](CO)C(=O)N[C@@H](CCSC)C(=O)N[C@@H](CCC(=O)O)C(=O)N[C@@H](CCCN=C(N)N)C(=O)N[C@H](C(=O)N[C@@H](CCC(=O)O)C(=O)N[C@@H](Cc1c[nH]c2ccccc12)C(=O)N[C@@H](CC(C)C)C(=O)N[C@@H](CCCN=C(N)N)C(=O)N[C@@H](CCCCN)C(=O)N[C@@H](CCCCN)C(=O)N[C@@H](CC(C)C)C(=O)N[C@@H](CCC(N)=O)C(=O)N[C@@H](CC(=O)O)C(=O)N[C@H](C(=O)N[C@@H](Cc1cnc[nH]1)C(=O)N[C@@H](CC(N)=O)C(=O)N[C@@H](Cc1ccccc1)C(=O)O)C(C)C)C(C)C [teriparatide acetate]
[2]
  corrected serum calcium value after administration, maximum: 11.6 mg/dL
  corrected serum calcium value after administration, minimum: 8.5 mg/dL
  corrected serum calcium value, range of the average: 9.3 to 9.6 mg/dL
  corrected serum calcium, test drug groups versus control group: No significant differences could be found
  manifestation of hypercalcemia or hypercalciuria: No manifestation of hypercalcemia or hypercalciuria was found
[3]
  median percentage change in the urinary calcium value: −14.7%
[4]
  incidence of side effects relative to the control: about twice that of the control
[5]; 5 or 100 units once a week, high-risk and low-risk patients
  changes in the serum calcium concentration: no tendency for the serum calcium to rise was seen
[5]; once a week, either dose (5 or 100 units), during the administration period
  hypercalcemia: did not cause hypercalcemia

## PTH: parathyroid hormone preparation given daily (20 μg/day) in cited trials, conventional daily administration
[6]
  patients with hypercalcemia: 11%
  patients with persistent hypercalcemia: 3%
[7]
  osteoporosis patients with serum calcium exceeding 11.0 mg/mL after administration: 11.76%
